Measured values reported in ChEMBL document CHEMBL5053523, “Design, synthesis, and structure-activity relationship of PD-1/PD-L1 inhibitors with a benzo[d]isoxazole scaffold” (Bioorg Med Chem Lett, 2021).

The molecules below were run against T1, Programmed cell death protein 1/Programmed cell death 1 ligand 1 (Homo sapiens, UniProt Q15116+Q9NZQ7) (assay: Inhibition of PD-1/PDL1 protein-protein interaction (unknown origin) by HTRF assay).
Type: protein-complex assay

T1 sequence (Q15116 whole entry): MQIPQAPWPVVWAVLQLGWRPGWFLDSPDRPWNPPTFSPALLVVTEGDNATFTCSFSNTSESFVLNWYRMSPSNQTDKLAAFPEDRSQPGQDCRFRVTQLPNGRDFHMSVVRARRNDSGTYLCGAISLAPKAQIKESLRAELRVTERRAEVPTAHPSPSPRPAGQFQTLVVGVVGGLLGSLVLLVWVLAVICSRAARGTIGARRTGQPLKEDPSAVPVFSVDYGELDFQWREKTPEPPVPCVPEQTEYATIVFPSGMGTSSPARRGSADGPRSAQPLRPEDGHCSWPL
T1 sequence (Q9NZQ7 whole entry): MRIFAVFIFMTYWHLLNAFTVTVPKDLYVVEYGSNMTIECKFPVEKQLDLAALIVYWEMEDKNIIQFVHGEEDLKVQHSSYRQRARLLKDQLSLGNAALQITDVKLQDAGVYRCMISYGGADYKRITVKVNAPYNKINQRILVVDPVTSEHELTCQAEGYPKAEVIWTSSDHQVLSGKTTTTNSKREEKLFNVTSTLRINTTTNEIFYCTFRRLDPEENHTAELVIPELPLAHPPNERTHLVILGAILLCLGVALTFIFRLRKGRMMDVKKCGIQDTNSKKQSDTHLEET

| Structure (SMILES) | IC50 |
| --- | --- |
| CC(=O)NCCNCc1ccc2onc(Nc3cccc(-c4ccccc4)c3Cl)c2c1 | 0.193 µM |
| CC(=O)NCCNCc1ccc2c(Nc3cccc(-c4ccccc4)c3Cl)noc2c1 | 2.03 µM |
| OC1CCN(Cc2ccc3c(Nc4cccc(-c5ccccc5)c4Cl)noc3c2)C1 (racemic) | 1.49 µM |
| O=C(O)[C@H](CO)NCc1ccc2c(Nc3cccc(-c4ccccc4)c3Cl)noc2c1 | 2.39 µM |
| O=C(O)C1CN(Cc2ccc3onc(Nc4cccc(-c5ccccc5)c4Cl)c3c2)C1 | 0.364 µM |
| O=C(O)CNCc1ccc2onc(Nc3cccc(-c4ccccc4)c3Cl)c2c1 | 0.0305 µM |
| O=C(O)CNCc1ccc2onc(Nc3cccc(-c4ccc5c(c4)OCCO5)c3Cl)c2c1 | 0.0916 µM |
| OC1CCN(Cc2ccc3onc(Nc4cccc(-c5ccc6c(c5)OCCO6)c4Cl)c3c2)C1 (racemic) | 1.28 µM |
| O=C(O)[C@H](CO)NCc1ccc2onc(Nc3cccc(-c4ccc5c(c4)OCCO5)c3Cl)c2c1 | 0.0513 µM |
| O=C(O)C1CCCN1Cc1ccc2onc(Nc3cccc(-c4ccccc4)c3Cl)c2c1 (racemic) | 0.0858 µM |
| OCCNCc1ccc2onc(Nc3cccc(-c4ccc5c(c4)OCCO5)c3Cl)c2c1 | 3.02 µM |
| O=C(O)C1CCCCN1Cc1ccc2onc(Nc3cccc(-c4ccccc4)c3Cl)c2c1 (racemic) | 0.0712 µM |
| O=C(O)C1CCCN(Cc2ccc3onc(Nc4cccc(-c5ccccc5)c4Cl)c3c2)C1 (racemic) | 0.0928 µM |
| CC(=O)NCCNCc1ccc2c(Nc3cccc(-c4ccc5c(c4)OCCO5)c3Cl)noc2c1 | 0.834 µM |
| O=C(O)C1CCN(Cc2ccc3onc(Nc4cccc(-c5ccccc5)c4Cl)c3c2)C1 (racemic) | 0.452 µM |
| CC(=O)NCCNCc1ccc2onc(Nc3cccc(-c4ccc5c(c4)OCCO5)c3Cl)c2c1 | 0.438 µM |
| OC1CCN(Cc2ccc3onc(Nc4cccc(-c5ccccc5)c4Cl)c3c2)C1 (racemic) | 0.464 µM |
| OCCNCc1ccc2onc(Nc3cccc(-c4ccccc4)c3Cl)c2c1 | 0.803 µM |
| COC(=O)[C@H](CO)NCc1ccc2onc(Nc3cccc(-c4ccccc4)c3Cl)c2c1 | 1.62 µM |
| O=C(O)CNCc1ccc2c(Nc3cccc(-c4ccc5c(c4)OCCO5)c3Cl)noc2c1 | 0.383 µM |
| OCCNCc1ccc2c(Nc3cccc(-c4ccccc4)c3Cl)noc2c1 | 6.49 µM |
| OCCNCc1ccc2c(Nc3cccc(-c4ccc5c(c4)OCCO5)c3Cl)noc2c1 | 0.756 µM |
| O=C(O)C1CCN1Cc1ccc2onc(Nc3cccc(-c4ccccc4)c3Cl)c2c1 (racemic) | 0.48 µM |
| OC1CCN(Cc2ccc3c(Nc4cccc(-c5ccc6c(c5)OCCO6)c4Cl)noc3c2)C1 (racemic) | 1.68 µM |
| O=C(O)[C@H](CO)NCc1ccc2c(Nc3cccc(-c4ccc5c(c4)OCCO5)c3Cl)noc2c1 | 1.72 µM |
| O=C(O)CNCc1ccc2c(Nc3cccc(-c4ccccc4)c3Cl)noc2c1 | 0.718 µM |
| O=C(O)[C@H](CO)NCc1ccc2onc(Nc3cccc(-c4ccccc4)c3Cl)c2c1 | 0.0268 µM |
| O=C(O)C1CCN(Cc2ccc3onc(Nc4cccc(-c5ccccc5)c4Cl)c3c2)CC1 | 0.61 µM |

What follows are molecules tested against T1, Programmed cell death protein 1/Programmed cell death 1 ligand 1 (assay: Inhibition of PD-1/PDL1 protein-protein interaction (unknown origin)).
Type: protein-complex assay

| Structure (SMILES) | IC50 |
| --- | --- |
| Cc1c(/C=C/c2c(Cl)cc(CNC(C)(CO)C(=O)O)cc2C(F)(F)F)cccc1-c1ccc2c(c1)OCCO2 (stereo unspecified) | 0.018 µM |
| N#Cc1cncc(COc2cc(OC3CCc4c(-c5ccccc5)cccc43)c(Cl)cc2CN[C@@H](CO)C(=O)O)c1 (stereo partly specified) | < 0.1 µM |
| Cc1c(NC(=O)c2cccc(CNCCO)n2)cccc1-c1ccccc1 | ≤ 0.01 µM |
